# Results taken from US10772327B2, “Herbicide composition containing isopropylamine caprylate” (HUNAN AGRICULTURAL BIOTECHNOLOGY RESEARCH INSTITUTE, priority 2018, dated 2020).
# Tests used:
# Assay in all cases: Indoor test for herbicidal activity, stem and leaf spray on potted weeds
# Details in all cases: Day 7, fresh weight of above-ground portion
# Echinochloa crusgalli = tested on: Echinochloa crusgalli
# Ludwigia prostrata = tested on: Ludwigia prostrata
# Poa annua = format: in vivo
# Eleocharis yokoscensis = format: in vivo
# Stellaria media = format: in vivo
# Cardamine hirsuta = format: in vivo
# Xanthium sibiricum = format: in vivo
# Beckmannia syzigachne = format: in vivo
# Conyza candesis = format: in vivo
# Veronica persica = format: in vivo
# Myosoton aquaticum = format: in vivo
# [1] = listed as glyphosate isopropylamine
# [2] = listed as glyphosate isopropylamine salt
# [3] = listed as isopropylamine caprylate
compound,measurement,setting,value
CCCCCCCC(=O)O [Caprylic acid],ED50 (95% confidence interval of ED50),Echinochloa crusgalli,14.07 (13.66-14.48) mg/mL
same,ED90 (95% confidence interval of ED90),Echinochloa crusgalli,108.65 (92.83-124.80) mg/mL
same,ED50 (95% confidence interval of ED50),Echinochloa crusgalli; listed as caprylic acid,14.07 mg/mL
same,ED50 (95% confidence interval of ED50),Ludwigia prostrata,12.52 (10.66-14.43) mg/mL
same,ED90 (95% confidence interval of ED90),Ludwigia prostrata,96.04 (85.15-108.33) mg/mL
same,ED50 (95% confidence interval of ED50),Ludwigia prostrata; listed as caprylic acid,12.52 mg/mL
CC(C)N.O=C(O)CNCP(=O)(O)O [Glyphosate isopropylamine],ED50 (95% confidence interval of ED50),Echinochloa crusgalli,52.18 (40.13-65.02) mg/mL
same,ED90 (95% confidence interval of ED90),Echinochloa crusgalli,384.59 (360.35-420.77) mg/mL
same,ED50 (95% confidence interval of ED50),Echinochloa crusgalli; [1],52.18 mg/mL
same,ED50 (95% confidence interval of ED50),Echinochloa crusgalli; [2],52.18 mg/mL
same,ED50 (95% confidence interval of ED50),Ludwigia prostrata,46.79 (41.87-52.27) mg/mL
same,ED90 (95% confidence interval of ED90),Ludwigia prostrata,321.75 (271.72-380.99) mg/mL
same,ED50 (95% confidence interval of ED50),Ludwigia prostrata; [1],46.79 mg/mL
same,ED50 (95% confidence interval of ED50),Ludwigia prostrata; [2],46.79 mg/mL
"CCCCCCCC(=O)O [Isopropylamine caprylate, isopropylamine caprylate]",ED50 (95% confidence interval of ED50),Poa annua,3.07 (2.66-10.48) mg/mL
same,ED90 (95% confidence interval of ED90),Poa annua,28.65 (22.83-40.82) mg/mL
same,ED50 (95% confidence interval of ED50),Eleocharis yokoscensis,3.23 (2.00-9.55) mg/mL
same,ED90 (95% confidence interval of ED90),Eleocharis yokoscensis,24.11 (18.74-40.82) mg/mL
same,ED50 (95% confidence interval of ED50),Stellaria media,0.80 (0.47-1.77) mg/mL
same,ED90 (95% confidence interval of ED90),Stellaria media,16.69 (7.91-26.98) mg/mL
same,ED50 (95% confidence interval of ED50),Cardamine hirsuta,0.90 (0.11-2.46) mg/mL
same,ED90 (95% confidence interval of ED90),Cardamine hirsuta,18.36 (10.74-35.88) mg/mL
same,ED50 (95% confidence interval of ED50),Echinochloa crusgalli,4.07 (2.66-10.48) mg/mL
same,ED90 (95% confidence interval of ED90),Echinochloa crusgalli,28.65 (22.83-40.82) mg/mL
same,ED50 (95% confidence interval of ED50),Echinochloa crusgalli; [3],4.07 mg/mL
same,ED50 (95% confidence interval of ED50),Xanthium sibiricum,0.64 (0.22-1.03) mg/mL
same,ED90 (95% confidence interval of ED90),Xanthium sibiricum,19.11 (10.80-31.14) mg/mL
same,ED50 (95% confidence interval of ED50),Ludwigia prostrata,0.52 (0.35-0.61) mg/mL
same,ED90 (95% confidence interval of ED90),Ludwigia prostrata,13.21 (9.17-18.31) mg/mL
same,ED50 (95% confidence interval of ED50),Ludwigia prostrata; [3],0.52 mg/mL
same,ED50 (95% confidence interval of ED50),Beckmannia syzigachne,3.07 (1.66-8.48) mg/mL
same,ED90 (95% confidence interval of ED90),Beckmannia syzigachne,30.65 (24.12-44.50) mg/mL
same,ED50 (95% confidence interval of ED50),Conyza candesis,0.74 (0.25-1.05) mg/mL
same,ED90 (95% confidence interval of ED90),Conyza candesis,15.54 (8.74-20.93) mg/mL
same,ED50 (95% confidence interval of ED50),Veronica persica,0.78 (0.28-2.35) mg/mL
same,ED90 (95% confidence interval of ED90),Veronica persica,9.16 (5.09-22.65) mg/mL
same,ED50 (95% confidence interval of ED50),Myosoton aquaticum,0.18 (0.04-0.25) mg/mL
same,ED90 (95% confidence interval of ED90),Myosoton aquaticum,16.47 (8.35-20.23) mg/mL
